These results are taken from patent US11530211B2, “Dihydroindolizinone derivative” (DAIICHI SANKYO COMPANY, LIMITED, priority 2018, dated 2022).

Assay [1] relates to human iPS cell Toe strain. Nature of the assay: Effect to promote differentiation from human iPS cells into insulin-producing cells (insulin-positive cell rate, imaging). It counts as cell-based. Further details: key to Activity: +: the sum of activity values at the two concentrations was obviously higher than the control untreated with compounds while being lower than the positive control; ++: the sum was equivalent to the positive control; +++: the sum was higher than the positive control. The note with it: for EC50: efficacy of 10 μM of the compound of Example 1 taken as 100%, 0.01 to 10 μM, read-out: E050; for Activity: sum of activity values at 2 μM and 10 μM compared with positive control (compound of Example 1), added at stages 3 to 5. The source says:
The evaluation system of the effect (efficacy) to promote differentiation from human iPS cells into insulin-producing cells was constructed with reference to known information (Non Patent Document 6). Further, the medium used in each differentiation stage was also produced with reference to known information (differentiation media A to E (Media A to E) described in Non Patent Document 6 were used respectively for stages 1 to 5; however, a medium free from GLP-1 receptor agonist and nicotinamide was used as differentiation medium E).
In order to evaluate the efficacy of each compound, the compound of Example 1 was used as a positive control, and dimethylsulfoxide (DMSO) (SIGMA, D2650) with a final concentration of 0.1% was used as a control untreated with compounds. […] In the following evaluation, the compound solutions were added to the medium to 0.1% that is the final concentration of DMSO. First, induction from human iPS cell Toe strain (National Institutes of Biomedical Innovation, Health and Nutrition) into cells on day 7 of culture (2 days after replacement with differentiation medium C (cells in the differentiation process from FOXA2-positive primitive gut tube cells into PDX1-positive pancreatic progenitor cells)) was performed according to the method of Non Patent Document 6 for “inducing differentiation from human iPS cells into pancreatic β cells”, and the cells were collected and thereafter stored in liquid nitrogen using Bambanker (NIPPON Genetics Co, Ltd.) at 1×10^7 cells/mL/tube, to produce a cell stock for evaluation. The cell stock was dissolved at the start of the evaluation of efficacy, suspended in differentiation medium C for stage 3 (DMEM high glucose (Life technologies, 11965092), 0.25 μM SANT-1, 0.1 μM LDN193189 (Stemgent, 04-0074), 10 μM SB431542, 2 μM Retinoic acid (Stemgent, 04-0021), 1% B27 serum free supplement (Life technologies, 17504044) and thereafter seeded in a 96-well plate (Corning, #3340) coated with Synthemax II (Corning, #5656) at 1×10^5 cells/well. After culturing for 2 days, the medium was removed, and new differentiation medium C for stage 3 with the compound or only DMSO added was added thereto at 100 μL/well. After culturing for 2 days, the medium was removed, and new differentiation medium D for stage 4 (DMEM high glucose, 0.1 μM LDN193189, 5 μM TGF-β type I receptor kinase inhibitor II (Calbiochem 616452), 0.3 μM (−)-indolactam V (Enzo life science ALX-420-011-C300), 1% B27 serum free supplement) with the compound or only DMSO added was added thereto at 100 μL/well. After culturing for 2 to 3 days, the medium was removed, and new differentiation medium E for stage 5 (GLP-1 receptor agonist and nicotinamide-free; Knockout […] (Life technologies, 12660012), 1% B27 serum free supplement) with the compound or only DMSO added was added thereto at 200 μL/well. After culturing for 2 days, the medium was removed, and a 4% paraformaldehyde phosphorus acid buffer (Wako, 163-20145) was added thereto at 150 μL/well and left standing for 30 to 60 minutes at room temperature to fix the cells. A phosphorus acid buffer (PBS) (Takara, T9181) containing 1% Triton X-100 (Sigma, T8787) was left standing for 15 minutes at room temperature, then washed with PBS-T (Takara, T9183), and was blocked for 1 hour using 20% Blocking One (Nacalai tesque, Tokyo, Japan) diluted with PBS-T at room temperature. After the removal of Blocking One, guinea pig anti-insulin antibody (Abcam, ab7842) diluted 200-fold with 20% Blocking One was added thereto at 50 μL/well, followed by standing at 4° C. overnight. After washing with PBS-T 3 times, […]-labeled anti-guinea pig antibody (Life Technologies, A11075) diluted 1000-fold with 20% Blocking One and 6-diamidino-2-phenylindole (DAPI) (Roche Diagnostics, Basel, Switzerland) were added thereto, followed by standing at room temperature for 2 hours. After washing with PBS-T 3 times, the fluorescence images of the cells were analyzed. […]

Another assay addresses T1, UCHL1 (Homo sapiens, UniProt P09936).
T1 sequence (P09936 1-223): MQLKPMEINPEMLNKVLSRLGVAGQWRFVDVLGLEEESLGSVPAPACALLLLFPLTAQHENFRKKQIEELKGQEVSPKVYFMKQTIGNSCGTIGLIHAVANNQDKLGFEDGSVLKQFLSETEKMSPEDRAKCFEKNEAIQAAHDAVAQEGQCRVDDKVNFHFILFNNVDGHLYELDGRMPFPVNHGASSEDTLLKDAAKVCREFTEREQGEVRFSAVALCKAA
Description: Evaluation of UCHL1 activation (ubiquitin-AMC hydrolysis). The conditions noted are these: test compound 10 μM; control (DMSO) = 100; fluorescence increment 10 minutes to 2 hours; n=3.

Read-outs that look alike come from different tables or passages of the source.

Description for UCHL1: Using dimethylsulfoxide (DMSO) (SIGMA, D2650) as a control untreated with compounds (which will be hereinafter referred to as control), each test compound was dissolved in DMSO in use. DMSO and the test compound solutions were each added to the enzymatic reaction solution to a final concentration of 2%. […] The amount of fluorescence (excitation wavelength: 350 nm and fluorescence wavelength: 440 nm) of AMC generated due to hydrolysis of the fluorescence-labeled substrate was measured 10 minutes and 2 hours after the start of the enzymatic reaction, to calculate the increment in amount of fluorescence by subtraction between the two.
The amount of fluorescence of AMC was measured using Envision (PerkinElmer). The increment in amount of fluorescence of the control was taken as 100%, and the increment in amount of fluorescence of each test compound was expressed as a percentage (%) based on this, to obtain an enzymatic activity value. Enzymatic activity value (%)={(Amount of fluorescence increment of each test compound)/(Amount of fluorescence increment of control)}×100

Consider `O=C1CCC(C(=O)Nc2ncc(-c3ccc(OC(F)(F)F)cc3)s2)n2cccc21` (single isomer, unassigned) [Example 10a], for which, in assay [1], the EC50 came out at 1.2 µM and the Activity entry was “+++”. In the case of `O=C1CCC(C(=O)Nc2ncc(-c3ccc(OC(F)(F)F)cc3)s2)n2cccc21` (single isomer, unassigned) [Example 10b], in assay [1], the EC50 is 0.22 µM and the Activity entry is given as “+++”. In the case of `Cc1nc(NC(=O)C2CCC(=O)c3cccn32)sc1-c1ccc(OC(C)(C)C)cc1` (single isomer, unassigned) [Example 101a], the Activity result in assay [1] is listed as “+”.

Consider `Cc1nc(NC(=O)C2CCC(=O)c3cccn32)sc1-c1ccc(OC(C)(C)C)cc1` (single isomer, unassigned) [Example 101b], for which the EC50 in assay [1] (Homo sapiens) came out at 0.09 µM. Also, the Activity result in assay [1] is “+++”. In addition, the “Enzyme activity (c/o)” value on UCHL1 was found to be 318 c/o. With `O=C1CCC(C(=O)Nc2ncc(-c3ccccc3)s2)n2cccc21` (centres unmarked) [Example 1, 8-Oxo-N-(5-phenylthiazol-2-yl)-6,7-dihydro-5H-indolizine-5-carboxamide], the EC50 in assay [1] (Homo sapiens) was found to be 5.8 µM. `CC(C)(C)Oc1ccc(-c2cnc(NC(=O)C3CCC(=O)c4cccn43)s2)cc1` (centres unmarked) [Example 11, N-[5-(4-Tert-butoxyphenyl)thiazol-2-yl]-8-oxo-6,7-dihydro-5H-indolizine-5-carboxamide]: the EC50 in assay [1] (Homo sapiens) came to 0.49 µM. Regarding `Cc1ccc(-c2cnc(NC(=O)C3CCC(=O)c4cccn43)s2)cc1` (centres unmarked) [Example 18], in assay [1], the Activity entry is on record as “++”.

`O=C1CCC(C(=O)Nc2ncc(-c3ccc(C(F)(F)F)cc3)s2)n2cccc21` (centres unmarked) [Example 21, 8-Oxo-N-[5-[4-(trifluoromethyl)phenyl]thiazol-2-yl]-6,7-dihydro-5H-indolizine-5-carboxamide]: in assay [1] (Homo sapiens), the EC50 turned out to be 0.45 µM. Consider `O=C1CCC(C(=O)Nc2ncc(-c3ccc4ccccc4c3)s2)n2cccc21` (centres unmarked) [Example 24, N-[5-(2-Naphthyl)thiazol-2-yl]-8-oxo-6,7-dihydro-5H-indolizine-5-carboxamide], for which the Activity result in assay [1] was “+”.

As for `O=C1CCC(C(=O)Nc2ncc(-c3ccc(OC(F)(F)F)c(Cl)c3)s2)n2cccc21` (centres unmarked) [Example 30, N-[5-[3-Chloro-4-(trifluoromethoxy)phenyl]thiazol-2-yl]-8-oxo-6,7-dihydro-5H-indolizine-5-carboxamide], in assay [1] (Homo sapiens), the EC50 came to 1 µM. Still for that read-out and setting: then `Cc1nc(NC(=O)C2CCC(=O)c3cccn32)sc1-c1ccc(OC(C)(C)C)cc1` (centres unmarked) [Example 35, N-[5-(4-tert-Butoxyphenyl)-4-methylthiazol-2-yl]-8-oxo-6,7-dihydro-5H-indolizine-5-carboxamide], with 0.25 µM; and `Cc1nc(NC(=O)C2CCC(=O)c3cccn32)sc1-c1ccc(OC(F)(F)F)cc1` (centres unmarked) [Example 36, N-[4-Methyl-5-[4-(trifluoromethoxy)phenyl]thiazol-2-yl]-8-oxo-6,7-dihydro-5H-indolizine-5-carboxamide], with 0.31 µM; and `O=C1CCC(C(=O)Nc2ncc(-c3ccc4c(c3)OC(F)(F)O4)s2)n2cccc21` (centres unmarked) [Example 40, N-[5-(2,2-Difluoro-1,3-benzodioxol-5-yl)thiazol-2-yl]-8-oxo-6,7-dihydro-5H-indolizine-5-carboxamide], with 0.82 µM. On the same count and under the same terms, then `O=C1CCC(C(=O)Nc2ncc(-c3ccc(OCc4ccccc4)c(F)c3)s2)n2cccc21` (centres unmarked) [Example 43, N-[5-(4-Benzyloxy-3-fluorophenyl)thiazol-2-yl]-8-oxo-6,7-dihydro-5H-indolizine-5-carboxamide], with 0.19 µM. The same measure, in the same setting: then `O=C1CCC(C(=O)Nc2ncc(-c3ccc(OCC(F)(F)F)cc3)s2)n2cccc21` (centres unmarked) [Example 45, 8-Oxo-N-[5-[4-(2,2,2-trifluoroethoxy)phenyl]thiazol-2-yl]-6,7-dihydro-5H-indolizine-5-carboxamide], with 0.13 µM; and `O=C1CCC(C(=O)Nc2ncc(-c3ccc(Oc4ccccc4)cc3)s2)n2cccc21` (centres unmarked) [Example 46, 8-Oxo-N-[5-(4-phenoxyphenyl)thiazol-2-yl]-6,7-dihydro-5H-indolizine-5-carboxamide], with 0.54 µM. With `O=C1CC(C(=O)Nc2ncc(-c3ccc(OC(F)(F)F)cc3)s2)n2cccc21` (centres unmarked) [Example 58], the EC50 in assay [1] (Homo sapiens) was determined as 1.6 µM. On the same count and under the same terms, then `O=C1CCC(C(=O)Nc2nc3ccc(-c4ccc(OC(F)(F)F)cc4)cc3s2)n2cccc21` (centres unmarked) [Example 59, 8-Oxo-N-[6-[4-(trifluoromethoxy)phenyl]-1,3-benzothiazol-2-yl]-6,7-dihydro-5H-indolizine-5-carboxamide], with 0.54 µM. Turning to `CC1(C(=O)Nc2ncc(-c3ccc(OC(F)(F)F)cc3)s2)CCC(=O)c2cccn21` (centres unmarked) [Example 65], the EC50 in assay [1] (Homo sapiens) was 1.8 µM. `Cc1nc(NC(=O)C2CCC(=O)c3cccn32)sc1-c1ccc(OCC(F)(F)F)cc1` (centres unmarked) [Example 88, N-[4-Methyl-5-[4-(2,2,2-trifluoroethoxy)phenyl]thiazol-2-yl]-8-oxo-6,7-dihydro-5H-indolizine-5-carboxamide]: the EC50 in assay [1] (Homo sapiens) stood at 0.24 µM. Besides, the “Enzyme activity (c/o)” value at UCHL1 stood at 422 c/o. For the compound `O=C1CCC(C(=O)Nc2nc3ccc(-c4ccc(Cl)cc4)cc3s2)n2cccc21` (centres unmarked) [Example 93, N-[6-(4-Chlorophenyl)-1,3-benzothiazol-2-yl]-8-oxo-6,7-dihydro-5H-indolizine-5-carboxamide], the EC50 in assay [1] (Homo sapiens) was found to be 0.29 µM.
